Several values for one entry are separate records, joined by “and”; a condition that tells them apart may be missing. Equal entries are not always repeated. Where two headings read alike, the source gives them in different places.
How the values were obtained:
MCF-7 cells [1] = assay: CellTiter-Glo (CTG) ATP viability assay, MCF-7; format: cell-based; settings: for Min Asymptote: MCF-7, Hill fit of luminescence normalized to solvent control, one line per replicate; for EC50: Homo sapiens
Description: (§1) CTG (e.g., read by the CTG reader 115) is a cell viability assay that quantifies the amount of ATP present at the end of an experiment as an indicator of the number of live cells. The electronic controller 155 measures ATP content in each condition as a readout by a luminescent signal, which is normalized by the luminescence of the control (e.g., a control well) to determine cell viability relative to on-plate controls. In some embodiments, the CTG assay is performed by first removing 100 μL of media from each well on the well-plate 105, which is then replaced with an equal amount of CellTiter-Glo reagent (e.g., Promega, G7572). Assayed plates may be shaken at 500 RPM for 20 minutes and allowed to rest for 10 minutes. In some instances, 100 μL of volume from each well is transferred to a white 96-well plate (e.g., Perkin Elmer, 6005680). The electronic controller 155 collects luminescence data from each well using an Envision plate reader (e.g., Perkin Elmer) and normalized against the solvent control to measure ATP content. The electronic controller 155 fits a 4-parameter hill curve to the dose response to determine the EC50 and depth of response.

MDA-MB-231 cells [2] = assay: CellTiter-Glo (CTG) ATP viability assay, MDA-MB-231; format: cell-based; settings: for EC50: Homo sapiens
Description: as §1

MDA-MB-231 cells [3] = assay: Quantitative phase imaging (QPI) growth response, MDA-MB-231; format: cell-based; parameters: DoR QPI: scale not given here; ToR 20 μM: unit not given here; settings: for Max Asymptote / Min Asymptote: MDA-MB-231, 4-parameter Hill fit of mean SGR vs concentration, one line per replicate; for EC50: Homo sapiens
Description: (§2) In some embodiments, breast cancer cell lines are imaged, representing diverse clinical subtypes, summarized in Table 2 below, using a QPI microscope (FIG. 1A) based on differential phase contrast (DPC) microscopy and phase reconstruction via a QPI microscope system. DPC is used for image acquisition and phase reconstruction because DPC's flexible design may be customized for high throughput phase measurements. […] As illustrated in the embodiment of FIG. 1A, a QPI microscope system 100 conducts assays in a 96-well plate (e.g., a well-plate 105) with 6-point dose response curves and up to five therapies in triplicate including solvent controls, summarized in Table 4 below. As described below, in reference to FIG. 1A, a growth response of cells is measured noninvasively using QPI via a QPI microscope system 110 before being assayed using a CTG reader 115.
(§3) FIG. 1B illustrates a timeline plot 200 showing two plates (e.g., two, separate well-plates 105) set up in parallel to measure cell viability. With reference to FIG. 1B, two plates are set-up simultaneously for each experiment. A first plate 205 is incubated for 27 hours (h) post drug exposure prior to CTG analysis (3 h equilibration+24 h of imaging), which measures cell adenosine triphosphate (ATP) content as a surrogate for cell viability. A second plate 210 is imaged for 72 h after 3 h equilibration (e.g., 75 h) and followed by CTG. […] The imaging locations are imaged for 72 h, as shown by images 1700-1715 of FIG. 7.
(§4) In some embodiments, a dose-dependent change in growth, as indicated by a change in the rate of mass accumulation or loss, is a parameter that can be extracted from QPI dose-response data. […] Individual specific growth rate measurements are indicated by points in the distribution of the graph 1200 of FIG. 2A. Blue is indicative of the DMSO control and red is indicative of doxorubicin. The black outline is a kernel density function fit to the distribution of specific growth rates for each condition (e.g., *p<0.05, **p<0.01). In some embodiments, the average SGR of each condition is fit to a sigmoid dose-response curve using a Hill equation. For example, computed logistic fit parameters using a 4-parameter Hill model via the QPI microscope system 110 for all conditions are summarized in Tables 5-8 below. To determine if there is a response, as illustrated by FIG. 2B, the QPI microscope system 110 tests goodness of fit, adjusts for degrees of freedom using an F-test at significance p<0.01 by comparison to a flat line, as an indicator of no response. For cases with a better fit to the Hill equation, the 4-parameter Hill curve may be used by the QPI microscope system 110 to determine the EC50, a measure of sensitivity to therapy because it represents the effective concentration at which 50% of the cells respond to therapy, as illustrated by FIG. 10. […] A 4-parameter Hill curve is fit to each dose response plot to extract the depth of response and EC50 for each cell/drug pair. A flat line represents no response due to failure of the F-test to reject the null hypothesis that the logistic fit is indistinguishable from a flat line. […] Each color indicates a different drug or therapy used.

MCF-7 cells [4] = assay: cells; settings: for EC50: Homo sapiens
Description: as §2, §3, §4

BT-474 cells = assay: cells; settings: for Max Asymptote / Min Asymptote: BT-474, 4-parameter Hill fit of mean SGR vs concentration, one line per replicate; for Hill Slope: BT-474, Hill fit; for EC50: Homo sapiens
Description: as §2, §3, §4

[5] = 24 h QPI, MCF-7, 4-parameter Hill fit of mean SGR vs concentration, one line per replicate

- EC50 (MCF-7 cells [1]; MCF7, 24 h, 24 h CTG, MCF-7, Hill fit, read-out: log10(EC50) (converted)): 1.89 µM
- EC50 (MCF-7 cells [1]; MCF7, MCF-7 cell line, CellTiter-Glo, read-out: EC50, CTG (converted)): 10.8 µM
- EC50 (MDA-MB-231 cells [2]; MDA-MB-231, 72 h, 72 h CTG, MDA-MB-231, Hill fit, read-out: log10(EC50) (converted)): 6 µM
- EC50 (MDA-MB-231 cells [2]; MDA-MB-231, MDA-MB-231 cell line, CellTiter-Glo, read-out: EC50, CTG): 6 µM
- EC50 (MDA-MB-231 cells [3]; MDA-MB-231, 24 h, 24 h QPI, MDA-MB-231, Hill fit, EC50 in μM per Table 1, read-out: log10(EC50) (converted)): 17.4 µM
- EC50 (MDA-MB-231 cells [3]; MDA-MB-231, 72 h, 72 h QPI, MDA-MB-231, Hill fit, EC50 in μM per Table 1, read-out: log10(EC50) (converted)): 118 µM
- EC50 (MDA-MB-231 cells [3]; MDA-MB-231, MDA-MB-231 cell line, QPI growth rate, read-out: EC50, QPI): 118 µM
- log10(EC50) (MCF-7 cells [4]; 24 h QPI, MCF-7, Hill fit, EC50 in μM per Table 1): −1.151
- EC50 (MCF-7 cells [4]; MCF7, 24 h, read-out: log10(EC50), 24 h QPI, MCF-7, Hill fit (converted), EC50 in μM per Table 1): 8.57 µM
- EC50 (MCF-7 cells [4]; MCF7, read-out: EC50, QPI, MCF-7 cell line, QPI growth rate): 25.7 µM
- EC50 (BT-474 cells; BT-474, 24 h, read-out: log10(EC50), 24 h QPI, BT-474, Hill fit (converted), EC50 in μM per Table 1): 0.0682 µM
- EC50 (BT-474 cells; BT-474, read-out: EC50, QPI, BT-474 cell line, QPI growth rate): 0.1 µM
Structure (SMILES): O=c1[nH]cc(F)c(=O)[nH]1 [5FU, 5-Fluorouracil]
- Hill Slope (MCF-7 cells [1]; 24 h CTG, MCF-7, Hill fit): 7.081
- Min Asymptote (MCF-7 cells [1]; 24 h CTG): 0.9238
- Hill Slope (MCF-7 cells [1]; 72 h CTG, MCF-7, Hill fit): 1.254 and 1.059 and 1.202
- Min Asymptote (MCF-7 cells [1]; 72 h CTG): 0.1952 and 0.003653 and 0.01678
- DoR CTG (MCF-7 cells [1]; MCF-7 cell line, depth of response, CellTiter-Glo): 0.9
- Hill Slope (MDA-MB-231 cells [2]; 72 h CTG, MDA-MB-231, Hill fit): 1.997
- Min Asymptote (MDA-MB-231 cells [2]; 72 h CTG, MDA-MB-231, Hill fit of luminescence normalized to solvent control, one line per replicate): 0.4937
- DoR CTG (MDA-MB-231 cells [2]; MDA-MB-231 cell line, depth of response, CellTiter-Glo): 0.5
- Max Asymptote (MDA-MB-231 cells [3]; 24 h QPI): 0.03336
- Min Asymptote (MDA-MB-231 cells [3]; 24 h QPI): 0.01996
- Hill Slope (MDA-MB-231 cells [3]; 24 h QPI, MDA-MB-231, Hill fit): 0.341
- Max Asymptote (MDA-MB-231 cells [3]; 72 h QPI): −0.009666
- Min Asymptote (MDA-MB-231 cells [3]; 72 h QPI): 0.03351
- Hill Slope (MDA-MB-231 cells [3]; 72 h QPI, MDA-MB-231, Hill fit): 0.4483
- DoR QPI (MDA-MB-231 cells [3]; MDA-MB-231 cell line, depth of response, QPI): 1.2
- ToR 20 μM (MDA-MB-231 cells [3]; MDA-MB-231 cell line, time of response at 20 μM): 15.2
- Max Asymptote (MCF-7 cells [4]; [5]): 0.02676 and 0.02665 (2×)
- Min Asymptote (MCF-7 cells [4]; [5]): 0.01382 and 0.007436 (2×)
- Min Asymptote (MCF-7 cells [4]; 72 h QPI, MCF-7, 4-parameter Hill fit of mean SGR vs concentration, one line per replicate): 0.0232 and 0.02426 and 0.02866
- DoR QPI (MCF-7 cells [4]; MCF-7 cell line, depth of response, QPI): 1.0
- ToR 20 μM (MCF-7 cells [4]; MCF-7 cell line, time of response at 20 μM): 9.4
- Max Asymptote (BT-474 cells; 24 h QPI): 0.01107
- Min Asymptote (BT-474 cells; 24 h QPI): 0.009021
- Hill Slope (BT-474 cells; 24 h QPI): 0.9134
- Max Asymptote (BT-474 cells; 72 h QPI): 0.007708 and 0.007733
- Min Asymptote (BT-474 cells; 72 h QPI): 0.008643 and 0.009665
- Hill Slope (BT-474 cells; 72 h QPI): 1.5745 and 1.1389
- DoR QPI (BT-474 cells; BT-474 cell line, depth of response, QPI): 0.2
